# Results from patent publication US20140309229A1, “METHODS FOR SELECTING AND TREATING CANCER IN PATIENTS WITH IGF-1R/IR INHIBITORS” (priority 2011, published 2014).
# Assays:
# [1] = system: panel of 60 CRC cell lines; assay: MTS proliferation assay, whole panel; format: cell-based, human; conditions: read-out: IC50, range of sensitivity across the panel
# Method: (§1) Cell lines and in vitro cytotoxicity assay. Cells were maintained at 37° C. under standard cell culture conditions. Cells were plated at an optimized density for each cell line per well in 96-well microtiter FALCON® plates, incubated overnight, and then exposed to a serial dilution of drug. […] The results were expressed as an IC50, which is the drug concentration required to inhibit cell proliferation to 50% of that of untreated control cells. The mean IC50 and standard deviation (SD) from multiple tests for each cell line were calculated.
# (§2) In vitro Cellular Proliferation Assays.
# [2] = system: pIGF-1R/pIR and pAKT
# Method: Cells were serum-starved overnight, then either stimulated with 50 ng/ml IGF-1, IGF-2 or insulin for 10 minutes, or unstimulated. Cell lysates were subjected to MSD for measuring both total and phosphorylated IGF-1R and AKT. The phospho-protein values were normalized to the corresponding total protein levels (e.g., pIGF-1R/IGF-1R). The ligand-stimulated activation of IGF-1R or AKT is presented as the ratio of the pIGF-1R/IGF-1R or pAKT/AKT value in IGF-1, IGF-2 or insulin-stimulated cells vs. the value in the non-stimulated cells. […] 20 ug of total protein from cell lysates were subjected to Western blot analysis.
# Western Blots and MesoScale Discovery (MSD) Multiplex Plate Based Assays. […] Antibodies for pIGF-IR/pIR, pAkt, p-p44/42 MAPK and IRS2 for Western blot and MSD were purchased from Cell Signaling Technology and Santa Cruz Biotechnology (see figure legends) except for β-ACTIN® sourced from Millipore. Protein signals from Western blots were visualized using ODYSSEY® Imaging (Li-Cor Biosciences). Measurement of phospho- and total IGF-1R, IR, IRS-1, Akt and MAPK was also determined by commercially available multiplex plate based assays (MSD, Gaithersburg Md.). […] Measurement of IRS2 was determined using customized assays utilizing MSD technology.
# Cell lysates were subsequently subjected to Western blot analysis and evaluated for pIGF-1R/pIR and pAKT.
# [3] = patients at minimum efficacious dose, phase I solid tumor trials; cited from earlier work
# [4] = system: SW1417; assay: MTS proliferation assay; format: cell-based, human
# Method: as §1, §2
# [5] = system: DLD-1; assay: MTS proliferation assay; format: cell-based, human; conditions: for IC50: Homo sapiens
# Method: as §1, §2
# [6] = system: GP5D; assay: MTS proliferation assay; format: cell-based, human
# Method: as §1, §2
# [7] = system: COLO-320-HSR; assay: MTS proliferation assay; format: cell-based, human
# Method: as §1, §2
# [8] = system: SW837; assay: MTS proliferation assay; format: cell-based, human
# Method: as §1, §2
# [9] = system: LS174T; assay: MTS proliferation assay; format: cell-based, human
# Method: as §1, §2
# [10] = system: WIDR; assay: MTS proliferation assay; format: cell-based, human
# Method: as §1, §2
# [11] = system: SW620; assay: MTS proliferation assay; format: cell-based, human
# Method: as §1, §2
# [12] = system: COLO-205; assay: MTS proliferation assay; format: cell-based, human
# Method: as §1, §2
# [13] = system: GEO; assay: MTS proliferation assay; format: cell-based, human
# Method: as §1, §2
# [14] = system: COLO741; assay: MTS proliferation assay; format: cell-based, human
# Method: as §1, §2
# [15] = system: HCT-116; assay: MTS proliferation assay; format: cell-based, human
# Method: as §1, §2
# [16] = system: RKO; assay: MTS proliferation assay; format: cell-based, human
# Method: as §1, §2
# [17] = system: LS-1034; assay: MTS proliferation assay; format: cell-based, human
# Method: as §1, §2
# [18] = system: RKO-RM13; assay: MTS proliferation assay; format: cell-based, human
# Method: as §1, §2
# [19] = system: RCM-1; assay: MTS proliferation assay; format: cell-based, human
# Method: as §1, §2
# [20] = system: HCC-56; assay: MTS proliferation assay; format: cell-based, human
# Method: as §1, §2
# [21] = system: COLO-678; assay: MTS proliferation assay; format: cell-based, human
# Method: as §1, §2
# [22] = system: DIFI; assay: MTS proliferation assay; format: cell-based, human
# Method: as §1, §2
# [23] = system: CCD18CO; assay: MTS proliferation assay; format: cell-based, human
# Method: as §1, §2
# [24] = system: KM12SM; assay: MTS proliferation assay; format: cell-based, human
# Method: as §1, §2
# [25] = system: SNU-407; assay: MTS proliferation assay; format: cell-based, human
# Method: as §1, §2
# [26] = system: MIP; assay: MTS proliferation assay; format: cell-based, human
# Method: as §1, §2
# [27] = system: GP2D; assay: MTS proliferation assay; format: cell-based, human
# Method: as §1, §2
# [28] = system: CW-2; assay: MTS proliferation assay; format: cell-based, human
# Method: as §1, §2
# [29] = system: SNU-C2B; assay: MTS proliferation assay; format: cell-based, human
# Method: as §1, §2
# [30] = system: CaR-1; assay: MTS proliferation assay; format: cell-based, human
# Method: as §1, §2
# [31] = system: SNU-81; assay: MTS proliferation assay; format: cell-based, human
# Method: as §1, §2
# [32] = preliminary panel of 45 CRC cell lines
smiles,measurement,setting,value
"C[C@@]1(C(=O)Nc2ccc(F)nc2)CCCN1c1nc(Nc2cc(C3CC3)n[nH]2)c2cccn2n1 [BMS-754807, (2S)-1-(4-((5-cyclopropyl-1H-pyrazol-3-yl)amino)pyrrolo[2,1-f][1,2,4]triazin-2-yl)-N-(6-fluoro-3-pyridinyl)-2-methyl-2-pyrrolidinecarboxamide]",IC50,[1],0.003 to 5.5 µM
same,pIGF-1R/pIR and pAKT levels,[2],inhibited by BMS-754807 treatment in a dose-dependent manner
same,average plasma concentration at steady state,[3],> 50 nmol/L
same,IC50,"[4]; Homo sapiens, SW1417, 72 h",0.106 µM
same,Sensitivity Classes,[4]; SW1417,R (“R” refers Resistant)
same,Sensitivity to BMS-754807,"[4]; SW1417, preliminary panel of 45 CRC cell lines",Intermediate (remaining 30 cell lines classified as Intermediate or resistant)
same,Sensitivity Classes,[5]; DLD-1,R (“R” refers Resistant)
same,Sensitivity to BMS-754807,"[5]; DLD-1, preliminary panel of 45 CRC cell lines",Resistant (resistant cell lines had IC50 values of >50 nmol/L)
same,IC50,[5]; DLD-1,0.666 µM
same,IC50,"[5]; DLD-1, 72 h",0.666 µM
same,Sensitivity Classes,[6]; GP5D,R (“R” refers Resistant)
same,IC50,"[6]; Homo sapiens, GP5d, 72 h",0.252 µM
same,Sensitivity to BMS-754807,"[7]; COLO320HSR, preliminary panel of 45 CRC cell lines",Sensitive (a sensitive cell line was classified as one with an IC50 of ≦50 nmol/L)
same,Sensitivity Classes,[7]; COLO-320-HSR,S (“S” refers Sensitive)
same,IC50,"[7]; Homo sapiens, COLO-320-HSR, 72 h",0.035 µM
same,IC50,"[8]; Homo sapiens, SW837, 72 h",1.89 µM
same,Sensitivity Classes,[8]; SW837,R (“R” refers Resistant)
same,Sensitivity to BMS-754807,"[8]; SW837, preliminary panel of 45 CRC cell lines",Resistant (resistant cell lines had IC50 values of >50 nmol/L)
same,Sensitivity Classes,[9],R (“R” refers Resistant)
same,IC50,"[9]; Homo sapiens, 72 h",0.358 µM
same,Sensitivity to BMS-754807,[9]; [32],Intermediate (remaining 30 cell lines classified as Intermediate or resistant)
same,IC50,"[10]; Homo sapiens, WiDr, 72 h",0.194 µM
same,Sensitivity Classes,[10]; WIDR,R (“R” refers Resistant)
same,Sensitivity to BMS-754807,"[10]; WIDR, preliminary panel of 45 CRC cell lines",Intermediate (remaining 30 cell lines classified as Intermediate or resistant)
same,IC50,"[11]; Homo sapiens, SW-620, 72 h",1.83 µM
same,Sensitivity Classes,[11]; SW620,R (“R” refers Resistant)
same,Sensitivity to BMS-754807,"[11]; SW620, preliminary panel of 45 CRC cell lines",Resistant (resistant cell lines had IC50 values of >50 nmol/L)
same,Sensitivity to BMS-754807,"[12]; COLO205, preliminary panel of 45 CRC cell lines",Intermediate (remaining 30 cell lines classified as Intermediate or resistant)
same,Sensitivity Classes,[12]; COLO-205,R (“R” refers Resistant)
same,IC50,"[12]; Homo sapiens, COLO 205, 72 h",0.242 µM
same,Sensitivity Classes,[13]; GEO,R (“R” refers Resistant)
same,Sensitivity to BMS-754807,"[13]; GEO, preliminary panel of 45 CRC cell lines",Intermediate (remaining 30 cell lines classified as Intermediate or resistant)
same,IC50,"[13]; Homo sapiens, 72 h",0.407 µM
same,Sensitivity Classes,[14]; COLO741,R (“R” refers Resistant)
same,IC50,"[14]; Homo sapiens, COLO-741, 72 h",1.35 µM
same,Sensitivity to BMS-754807,"[15]; HCT116, preliminary panel of 45 CRC cell lines",Resistant (resistant cell lines had IC50 values of >50 nmol/L)
same,Sensitivity Classes,[15]; HCT-116,R (“R” refers Resistant)
same,IC50,"[15]; Homo sapiens, HCT-116, 72 h",0.503 µM
same,Sensitivity Classes,[16],R (“R” refers Resistant)
same,IC50,"[16]; Homo sapiens, 72 h",0.857 µM
same,Sensitivity to BMS-754807,[16]; [32],Resistant (resistant cell lines had IC50 values of >50 nmol/L)
same,IC50,"[17]; Homo sapiens, LS-1034, 72 h",0.044 µM
same,Sensitivity to BMS-754807,"[17]; LS1034, preliminary panel of 45 CRC cell lines",Sensitive (a sensitive cell line was classified as one with an IC50 of ≦50 nmol/L)
same,Sensitivity Classes,[17]; LS-1034,S (“S” refers Sensitive)
same,IC50,"[18]; Homo sapiens, 72 h",0.727 µM
same,Sensitivity Classes,[18]; RKO-RM13,R (“R” refers Resistant)
same,Sensitivity to BMS-754807,"[18]; RKO-RM13, preliminary panel of 45 CRC cell lines",Resistant (resistant cell lines had IC50 values of >50 nmol/L)
same,IC50,"[19]; Homo sapiens, RCM-1, 72 h",0.024 µM
same,Sensitivity Classes,[19]; RCM-1,S (“S” refers Sensitive)
same,Sensitivity Classes,[20]; HCC-56,S (“S” refers Sensitive)
same,IC50,"[20]; Homo sapiens, 72 h",0.005 µM
same,Sensitivity Classes,[21]; COLO-678,R (“R” refers Resistant)
same,IC50,"[21]; Homo sapiens, COLO-678, 72 h",0.192 µM
same,Sensitivity Classes,[22]; DIFI,S (“S” refers Sensitive)
same,Sensitivity to BMS-754807,"[22]; DIFI, preliminary panel of 45 CRC cell lines",Sensitive (a sensitive cell line was classified as one with an IC50 of ≦50 nmol/L)
same,IC50,"[22]; Homo sapiens, DiFi, 72 h",0.012 µM
same,Sensitivity Classes,[23]; CCD18CO,R (“R” refers Resistant)
same,Sensitivity to BMS-754807,"[23]; CCD18CO, preliminary panel of 45 CRC cell lines",Resistant (resistant cell lines had IC50 values of >50 nmol/L)
same,IC50,"[23]; Homo sapiens, CCD-18Co, 72 h",2.56 µM
same,IC50,"[24]; Homo sapiens, 72 h",0.037 µM
same,Sensitivity Classes,[24]; KM12SM,S (“S” refers Sensitive)
same,Sensitivity to BMS-754807,"[24]; KM12SM, preliminary panel of 45 CRC cell lines",Sensitive (a sensitive cell line was classified as one with an IC50 of ≦50 nmol/L)
same,IC50,"[25]; Homo sapiens, SNU-407, 72 h",0.013 µM
same,Sensitivity Classes,[25]; SNU-407,S (“S” refers Sensitive)
same,Sensitivity Classes,[26],R (“R” refers Resistant)
same,IC50,"[26]; Homo sapiens, 72 hrs",4.36 µM
same,Sensitivity Classes,[27]; GP2D,R (“R” refers Resistant)
same,IC50,"[27]; Homo sapiens, GP2d, 72 h",0.261 µM
same,Sensitivity Classes,[28]; CW-2,R (“R” refers Resistant)
same,IC50,"[28]; Homo sapiens, CW-2, 72 h",0.586 µM
same,IC50,"[29]; Homo sapiens, SNU-C2B, 72 h",1.48 µM
same,Sensitivity Classes,[29]; SNU-C2B,R (“R” refers Resistant)
same,Sensitivity to BMS-754807,"[29]; SNUC2B, preliminary panel of 45 CRC cell lines",Resistant (resistant cell lines had IC50 values of >50 nmol/L)
same,Sensitivity Classes,[30]; CaR-1,R (“R” refers Resistant)
same,IC50,"[30]; Homo sapiens, CaR-1, 72 h",0.375 µM
same,IC50,"[31]; Homo sapiens, 72 h",5 µM
same,Sensitivity Classes,[31]; SNU-81,R (“R” refers Resistant)
